The experiment in a line: HCV replicon assay (luciferase reporter, ET cell line). As to conditions: Hepatitis C virus, HCV replicon luciferase activity in ET cells. It counts as cell-based. In a few lines: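 EC50 and, via WST-1 cytotoxicity, TC50 were fitted with a Hill-coefficient equation to % inhibition across 10 two-fold dilutions. Compounds at 0.1 nM-[…] with 0.5% DMSO were applied 24 h post-seeding to replicon-bearing ET cells (luc-ubi-neo/NS3-5B, adaptive mutations). Firefly luciferase signal was measured after 48-72 h.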
(In antiviral work, replicon cells carry a viral genome segment that copies itself.)

Usually inhibition stands for the percentage by which the read-out fell short of the control.

Turning to `O=C(NCc1cncs1)c1nc2c(C(F)(F)F)cc(-c3ccoc3)cn2c1Cl` [Compound 360, 3-Chloro-6-furan-3-yl-8-trifluoromethyl-imidazo[1,2-a]pyridine-2-carboxylic Acid (thiazol-5-ylmethyl)-amide], the inhibition at 10 µM came out at 85.2%.
As for `N#Cc1cc(-c2ccccc2)cn2c(Br)c(C(=O)NCc3cccs3)nc12` [Compound 362, 3-Bromo-8-cyano-6-phenyl-imidazo[1,2-a]pyridine-2-carboxylic Acid (thiophen-2-ylmethyl)amide], testing at 10 µM gave an inhibition of 86.9%.
Under `O=S(=O)(Cc1ccccc1)Nc1nc2c(C(F)(F)F)cc(-c3ccco3)cn2c1Cl` [Compound 363, N-(3-Chloro-6-furan-2-yl-8-trifluoromethyl-imidazo[1,2-a]pyridin-2-yl)-C-phenyl-methanesulfonamide] stands 12.6%; under `O=C(NCc1cccs1)c1nc2c(C(F)(F)F)cc(-c3cccc(F)c3)cn2c1CN1CCOCC1` [Compound 364, 6-(3-Fluoro-phenyl)-3-morpholin-4-ylmethyl-8-trifluoromethyl-imidazo[1,2-a]pyridine-2-carboxylic Acid (thiophen-2-ylmethyl)-amide], 5.3%; under `CN(C)Cc1c(C(=O)NCc2cccs2)nc2c(C(F)(F)F)cc(-c3cccc(F)c3)cn12` [Compound 365, 3-Dimethylaminomethyl-6-(3-fluoro-phenyl)-8-trifluoromethyl-imidazo[1,2-a]pyridine-2-carboxylic Acid (thiophen-2-ylmethyl)-amide], 4.4%.
The result for `O=C(NCc1cccs1)c1nc2c(C(F)(F)F)cc(-c3cccc(F)c3)cn2c1Br` [Compound 367, 3-bromo-6-(3-fluoro-phenyl)-8-trifluoromethyl-imidazo[1,2-a]pyridine-2-carboxylic acid (thiophen-2-ylmethyl)-amide] reads 96.2%; that for `O=C(c1nc2c(C(F)(F)F)cc(-c3cccc(F)c3)cn2c1Br)N1CCC(c2ccccc2)C1` (stereo not drawn) [Compound 368, [3-Bromo-6-(3-fluoro-phenyl)-8-trifluoromethyl-imidazo[1,2-a]pyridin-2-yl]-(3-phenyl-pyrrolidin-1-yl)-methanone], 92.2%; that for `O=C(NCc1cccs1)c1nc2c(Cl)cc(-c3ccccc3)cn2c1Br` [Compound 369, 3-Bromo-8-chloro-6-phenyl-imidazo[1,2-a]pyridine-2-carboxylic Acid (thiophen-2-ylmethyl)-amide], 88%.
As for `O=C(NCc1cccs1)c1nc2c(Cl)cc(-c3ccccc3)cn2c1Cl` [Compound 370, 3,8-Dichloro-6-phenyl-imidazo[1,2-a]pyridine-2-carboxylic Acid (thiophen-2-ylmethyl)-amide], the inhibition at 10 µM stood at 80.4%.
Under `O=C(NCc1cccs1)c1nc2c(Br)cc(-c3ccccc3)cn2c1Cl` [Compound 371, 8-Bromo-3-chloro-6-phenyl-imidazo[1,2-a]pyridine-2-carboxylic Acid (thiophen-2-ylmethyl)-amide] stands 78.6%; under `O=C(NCc1cccs1)c1nc2c(-c3ncon3)cc(-c3ccoc3)cn2c1Cl` [Compound 374, 3-Chloro-6-furan-3-yl-8-[1,2,4]oxadiazol-3-yl-imidazo[1,2-a]pyridine-2-carboxylic Acid (thiophen-2-ylmethyl)-amide], 28.6%.
As for `CCCCCc1nc(-c2cc(-c3ccoc3)cn3c(Cl)c(C(=O)NCc4cccs4)nc23)no1` [Compound 375, 3-Chloro-6-furan-3-yl-8-(5-pentyl-[1,2,4]oxadiazol-3-yl)-imidazo[1,2-a]pyridine-2-carboxylic Acid (thiophen-2-ylmethyl)-amide], 10 µM produced 35.4% inhibition.
Under `O=C(NCc1cccs1)c1nc2c(C(F)(F)F)cc(-c3cn[nH]c3)cn2c1Br` [Compound 376, 3-Bromo-6-(1H-pyrazol-4-yl)-8-trifluoromethyl-imidazo[1,2-a]pyridine-2-carboxylic Acid(thiophen-2-ylmethyl)-amide] stands 98.8%; under `O=C(c1cn2cc(-c3cn[nH]c3)cc(C(F)(F)F)c2n1)N1CCC(c2ccccc2F)C1` (stereo not drawn) [Compound 377, [3-(2-Fluoro-phenyl)-pyrrolidin-1-yl]-[6-(1H-pyrazol-4-yl)-8-trifluoromethyl-imidazo[1,2-a]pyridin-2-yl]-methanone], 94.2%; under `O=C(c1cn2cc(-c3cn[nH]c3)cc(C(F)(F)F)c2n1)N1CCC(c2cccc(F)c2)C1` (stereo not drawn) [Compound 378, [3-(3-Fluoro-phenyl)-pyrrolidin-1-yl]-[6-(1H-pyrazol-4-yl)-8-trifluoromethyl-imidazo[1,2-a]pyridin-2-yl]-methanone], 86.4%.
The result for `N#Cc1cc(-c2cn[nH]c2)cn2c(Cl)c(C(=O)NCc3cccs3)nc12` [Compound 379, 3-Chloro-8-cyano-6-(1H-pyrazol-4-yl)-imidazo[1,2-a]pyridine-2-carboxylic Acid (thiophen-2-ylmethyl)-amide] reads 80.8%.
The result for `O=C(c1nc2c(C(F)(F)F)cc(-c3ccco3)cn2c1Cl)N1CCc2ccccc21` [Compound 380, (3-Chloro-6-furan-2-yl-8-trifluoromethyl-imidazo[1,2-a]pyridin-2-yl)-(2,3-dihydro-indol-1-yl)-methanone] reads 20.2%; that for `O=C(c1nc2c(C(F)(F)F)cc(-c3ccoc3)cn2c1Cl)N1CCC(N2CCOCC2)C1` (stereo not drawn) [Compound 381, (3-Chloro-6-furan-3-yl-8-trifluoromethyl-imidazo[1,2-a]pyridin-2-yl)-(3-morpholin-4-yl-pyrrolidin-1-yl)-methanone], 37.9%.
Consider `[H]/N=C(/NCc1cccs1)c1nc2c(C(F)(F)F)cc(-c3ccoc3)cn2c1Cl` [Compound 382, 3-Chloro-6-furan-3-yl-N-thiophen-2-ylmethyl-8-trifluoromethyl-imidazo[1,2-a]pyridine-2-carboxamidine], for which the inhibition at 10 µM was found to be 65.4%.
`O=C(Cc1cccs1)NCc1cn2cc(-c3ccoc3)cc(C(F)(F)F)c2n1` [Compound 388, N-(6-Furan-3-yl-8-trifluoromethyl-imidazo[1,2-a]pyridin-2-ylmethyl)-2-thiophen-2-yl-acetamide]: the inhibition at 10 µM is 97.2%.
Consider `O=C(Cc1ccccc1)NCc1nc2c(C(F)(F)F)cc(-c3ccoc3)cn2c1Cl` [Compound 389, N-(3-Chloro-6-furan-3-yl-8-trifluoromethyl-imidazo[1,2-a]pyridin-2-ylmethyl)-2-phenyl-acetamide], for which 10 µM produced 45.3% inhibition.
The result for `O=C(Cc1ccccc1)NCc1cn2cc(-c3ccoc3)cc(C(F)(F)F)c2n1` [Compound 390, N-(6-Furan-3-yl-8-trifluoromethyl-imidazo[1,2-a]pyridin-2-ylmethyl)-2-phenyl-acetamide] reads 95.8%; that for `O=C(NCc1ccccc1)NCc1cn2cc(-c3ccoc3)cc(C(F)(F)F)c2n1` [Compound 391, 1-Benzyl-3-(6-furan-3-yl-8-trifluoromethyl-imidazo[1,2-a]pyridin-2-ylmethyl)-urea], 99.9%; that for `O=C(NCc1cn2cc(-c3ccoc3)cc(C(F)(F)F)c2n1)OCc1ccccc1` [Compound 393, (6-Furan-3-yl-8-trifluoromethyl-imidazo[1,2-a]pyridine-2-ylmethyl)-carbamic Acid Benzyl Ester], 0.5%.

(Values after US20120121540A1 (priority 2007, published 2012).)
